Experimental data from ChEMBL document CHEMBL5614413, “Design, synthesis and biological evaluation of amphiphilic benzopyran derivatives as potent antibacterial agents against multidrug-resistant bacteria” (Eur J Med Chem, 2024).
Converted amounts (≈) assume the structure as drawn.

Key:
Staphylococcus aureus [1] = experiment: Antibacterial activity against erythromycin-susceptible Staphylococcus aureus ATCC 25923; format: functional
Staphylococcus aureus [2] = experiment: Antibacterial activity against penicillin-resistant Staphylococcus aureus ATCC 31007; format: functional
Staphylococcus aureus [3] = experiment: Antibacterial activity against methicillin-resistant Staphylococcus aureus ATCC 43300; format: functional
Bacillus subtilis = experiment: Antibacterial activity against penicillin-susceptible Bacillus subtilis ATCC 9372; format: functional
Enterococcus faecalis = experiment: Antibacterial activity against vancomycin-susceptible Enterococcus faecalis ATCC 29212; format: functional
[4] = tested on: Staphylococcus epidermidis; experiment: Antibacterial activity erythromycin-susceptible Staphylococcus epidermidis ATCC 12228; format: functional
Klebsiella pneumoniae = experiment: Antibacterial activity against Klebsiella pneumoniae ATCC 10031; format: functional
Acinetobacter baumannii = experiment: Antibacterial activity against Acinetobacter baumannii ATCC 19606; format: functional
Escherichia coli = experiment: Antibacterial activity against penicillin-susceptible Escherichia coli ATCC 25922; format: functional
Pseudomonas aeruginosa = experiment: Antibacterial activity against penicillin-susceptible Pseudomonas aeruginosa ATCC 27853; format: functional
[5] = Hemolytic activity in sheep RBC; format: toxicity, cell-based, Ovis aries, Erythrocyte; details: sheep red blood cells (erythrocytes)
[6] = Selectivity index, ratio of HC50 for hemolytic activity in sheep RBC to MIC for antibacterial activity against methicillin-resistant Staphylococcus aureus ATCC 43300; format: toxicity; details: sheep red blood cells (erythrocytes), read-out: Selectivity Index

Question: With `CC(=O)c1ccc2c(c1OCC(=O)NCCCN1CCOCC1)C=CC(C)(CCC=C(C)C)O2` (configuration not stated) as the molecule, how does the MIC (Staphylococcus aureus [1]) read?
Answer: 128 µg/mL (≈ 272 µM)

Question: What about the MIC (Staphylococcus aureus [2]) of the same molecule?
Answer: 128 µg/mL (≈ 272 µM)

Question: And the MIC (Staphylococcus aureus [3])?
Answer: 64 µg/mL (≈ 136 µM)

Question: What about the MIC (Bacillus subtilis) of the same molecule?
Answer: 128 µg/mL (≈ 272 µM)

Question: What about the MIC (Enterococcus faecalis) of the same molecule?
Answer: 128 µg/mL (≈ 272 µM)

Question: What about the MIC [4] of the same molecule?
Answer: 128 µg/mL (≈ 272 µM)

Question: What about the MIC (Klebsiella pneumoniae) of the same molecule?
Answer: 128 µg/mL (≈ 272 µM)

Question: And the MIC (Acinetobacter baumannii)?
Answer: 128 µg/mL (≈ 272 µM)

Question: And the MIC (Escherichia coli)?
Answer: > 128 µg/mL

Question: What about the MIC (Pseudomonas aeruginosa) of the same molecule?
Answer: > 128 µg/mL

Question: And the HC50 [5]?
Answer: 261 µg/mL

Question: And the selectivity ratio [6]?
Answer: 4.1

Question: With `CCCCN(CCCC)CCCNC(=O)COc1c(C(C)=O)ccc2c1C=CC(C)(CCC=C(C)C)O2` (configuration not stated) as the molecule, how does the MIC (Staphylococcus aureus [1]) read?
Answer: 16 µg/mL (≈ 31.2 µM)

Question: And the MIC (Staphylococcus aureus [2])?
Answer: 16 µg/mL (≈ 31.2 µM)

Question: And the MIC (Staphylococcus aureus [3])?
Answer: 8 µg/mL (≈ 15.6 µM)

Question: And the MIC (Bacillus subtilis)?
Answer: 4 µg/mL (≈ 7.8 µM)

Question: And the MIC (Enterococcus faecalis)?
Answer: 32 µg/mL (≈ 62.4 µM)

Question: And the MIC [4]?
Answer: 32 µg/mL (≈ 62.4 µM)

Question: What about the MIC (Klebsiella pneumoniae) of the same molecule?
Answer: 128 µg/mL (≈ 250 µM)

Question: What about the MIC (Acinetobacter baumannii) of the same molecule?
Answer: 128 µg/mL (≈ 250 µM)

Question: And the MIC (Escherichia coli)?
Answer: > 128 µg/mL

Question: What about the MIC (Pseudomonas aeruginosa) of the same molecule?
Answer: > 128 µg/mL

Question: And the HC50 [5]?
Answer: 270 µg/mL

Question: What about the selectivity ratio [6] of the same molecule?
Answer: 33.8

Question: Which results are given for `CC(=O)c1c(OCCCNCCN(C)C)c2c(c3c1OC(C)(CCC=C(C)C)C=C3)OC(C)(CCC=C(C)C)C=C2` (configuration not stated)?
Answer: MIC (Staphylococcus aureus [1]): 1 µg/mL (≈ 1.77 µM); MIC (Staphylococcus aureus [2]): 2 µg/mL (≈ 3.54 µM); MIC (Staphylococcus aureus [3]): 2 µg/mL (≈ 3.54 µM); MIC (Bacillus subtilis): 2 µg/mL (≈ 3.54 µM); MIC (Enterococcus faecalis): 1 µg/mL (≈ 1.77 µM); MIC [4]: 0.5 µg/mL (≈ 0.885 µM); MIC (Klebsiella pneumoniae): 4 µg/mL (≈ 7.08 µM); MIC (Acinetobacter baumannii): 2 µg/mL (≈ 3.54 µM); MIC (Escherichia coli): 2 µg/mL (≈ 3.54 µM); MIC (Pseudomonas aeruginosa): 32 µg/mL (≈ 56.7 µM); HC50 [5]: 45.2 µg/mL; selectivity ratio [6]: 22.6

Question: Which MIC (Staphylococcus aureus [1]) does the source give for `CC(=O)c1ccc2c(c1OCC(=O)NCCCN1CCN(C)CC1)C=CC(C)(CCC=C(C)C)O2` (configuration not stated) here?
Answer: 128 µg/mL (≈ 265 µM)

Question: And the MIC (Staphylococcus aureus [2])?
Answer: 128 µg/mL (≈ 265 µM)

Question: What about the MIC (Staphylococcus aureus [3]) of the same molecule?
Answer: 128 µg/mL (≈ 265 µM)

Question: What about the MIC (Bacillus subtilis) of the same molecule?
Answer: > 128 µg/mL

Question: What about the MIC (Enterococcus faecalis) of the same molecule?
Answer: 128 µg/mL (≈ 265 µM)

Question: What about the MIC [4] of the same molecule?
Answer: 128 µg/mL (≈ 265 µM)

Question: And the MIC (Klebsiella pneumoniae)?
Answer: 128 µg/mL (≈ 265 µM)

Question: What about the MIC (Acinetobacter baumannii) of the same molecule?
Answer: 128 µg/mL (≈ 265 µM)

Question: What about the MIC (Escherichia coli) of the same molecule?
Answer: > 128 µg/mL

Question: And the MIC (Pseudomonas aeruginosa)?
Answer: > 128 µg/mL

Question: What about the HC50 [5] of the same molecule?
Answer: 220 µg/mL

Question: What about the selectivity ratio [6] of the same molecule?
Answer: 1.7

Question: For `CC(=O)c1c(OCCCN2CCOCC2)c2c(c3c1OC(C)(CCC=C(C)C)C=C3)OC(C)(CCC=C(C)C)C=C2` (configuration not stated), which MIC (Staphylococcus aureus [1]) is on record?
Answer: > 128 µg/mL

Question: And the MIC (Staphylococcus aureus [2])?
Answer: > 128 µg/mL

Question: And the MIC (Staphylococcus aureus [3])?
Answer: > 128 µg/mL

Question: What about the MIC (Bacillus subtilis) of the same molecule?
Answer: > 128 µg/mL

Question: And the MIC (Enterococcus faecalis)?
Answer: > 128 µg/mL

Question: And the MIC [4]?
Answer: > 128 µg/mL

Question: What about the MIC (Klebsiella pneumoniae) of the same molecule?
Answer: > 128 µg/mL

Question: What about the MIC (Acinetobacter baumannii) of the same molecule?
Answer: > 128 µg/mL

Question: And the MIC (Escherichia coli)?
Answer: > 128 µg/mL

Question: And the MIC (Pseudomonas aeruginosa)?
Answer: > 128 µg/mL

Question: What about the HC50 [5] of the same molecule?
Answer: > 128 µg/mL

Question: And the selectivity ratio [6]?
Answer: < 10

Question: For `COc1c(C(=O)/C=C/c2ccc(OCCCNCCN(C)C)cc2)ccc2c1C=CC(C)(CCC=C(C)C)O2` (configuration not stated), which MIC (Staphylococcus aureus [1]) is on record?
Answer: 8 µg/mL (≈ 15 µM)

Question: What about the MIC (Staphylococcus aureus [2]) of the same molecule?
Answer: 4 µg/mL (≈ 7.51 µM)

Question: What about the MIC (Staphylococcus aureus [3]) of the same molecule?
Answer: 4 µg/mL (≈ 7.51 µM)

Question: And the MIC (Bacillus subtilis)?
Answer: 2 µg/mL (≈ 3.75 µM)

Question: And the MIC (Enterococcus faecalis)?
Answer: 2 µg/mL (≈ 3.75 µM)

Question: And the MIC [4]?
Answer: 2 µg/mL (≈ 3.75 µM)

Question: And the MIC (Klebsiella pneumoniae)?
Answer: 16 µg/mL (≈ 30 µM)

Question: What about the MIC (Acinetobacter baumannii) of the same molecule?
Answer: 8 µg/mL (≈ 15 µM)

Question: And the MIC (Escherichia coli)?
Answer: 4 µg/mL (≈ 7.51 µM)

Question: And the MIC (Pseudomonas aeruginosa)?
Answer: 128 µg/mL (≈ 240 µM)

Question: And the HC50 [5]?
Answer: 270 µg/mL

Question: And the selectivity ratio [6]?
Answer: 67.6
